Assay [1] addresses T1, human PI3Kα protein (Homo sapiens, UniProt P42336).
T1 construct: purchased Carna Biosciences, Inc; host or cells: baculovirus expression system
Nature of the assay: PI3Kα enzyme assay (ADP-Glo). The format is biochemical. The settings on record: read-out: PI3Kα enzyme inhibitory activity. An outline of the steps: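 Biotinylated human PI3Kα (baculovirus-expressed, 4.5 nmol/L) pre-incubated 15 min with compound in Tris-HCl pH 7.5, MgCl2, BSA; reaction 60 min at 25° C with 50 μmol/L PIP2 and 100 μmol/L ATP final. ADP quantified by ADP-Glo luminescence; IC50 calculated.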

Assay [2] has as its target T2, GST fusion human ERK2 protein (Homo sapiens, UniProt P28482).
T2 construct: purchased Carna Biosciences, Inc; host or cells: E. coli expression system
Nature of the assay: ERK2 enzyme assay (2). The format is biochemical. The settings on record: ERK2 enzyme assay (2); read-out: ERK2 enzyme inhibitory activity (2). The gist of the method: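 GST-tagged human ERK2 expressed in E. coli (1.25 nmol/L) was preincubated with compound for 15 min at room temperature in pH 7.5 Hepes buffer with MgCl2, DTT and Brij35. Reaction with FL-Peptide 8 (final 4.25 μmol/L) and ATP (final 1 mmol/L) ran 120 min at 25 °C; EDTA stopped it, and phosphorylated peptide was quantified by mobility-shift separation to derive IC50.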

Counter-ions that a name gives are not always drawn.

T2 sequence (P28482 whole entry, the tested form may be a part): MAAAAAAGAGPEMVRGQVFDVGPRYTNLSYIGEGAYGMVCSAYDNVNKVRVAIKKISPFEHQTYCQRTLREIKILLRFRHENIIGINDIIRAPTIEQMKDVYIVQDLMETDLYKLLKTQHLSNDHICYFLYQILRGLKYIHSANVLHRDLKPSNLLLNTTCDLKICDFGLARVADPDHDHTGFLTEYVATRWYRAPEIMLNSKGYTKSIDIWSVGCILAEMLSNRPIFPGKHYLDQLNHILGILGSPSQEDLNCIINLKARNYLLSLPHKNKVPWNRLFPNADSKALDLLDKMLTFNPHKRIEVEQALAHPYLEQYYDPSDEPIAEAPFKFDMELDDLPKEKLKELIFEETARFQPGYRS
T1 sequence (P42336 whole entry): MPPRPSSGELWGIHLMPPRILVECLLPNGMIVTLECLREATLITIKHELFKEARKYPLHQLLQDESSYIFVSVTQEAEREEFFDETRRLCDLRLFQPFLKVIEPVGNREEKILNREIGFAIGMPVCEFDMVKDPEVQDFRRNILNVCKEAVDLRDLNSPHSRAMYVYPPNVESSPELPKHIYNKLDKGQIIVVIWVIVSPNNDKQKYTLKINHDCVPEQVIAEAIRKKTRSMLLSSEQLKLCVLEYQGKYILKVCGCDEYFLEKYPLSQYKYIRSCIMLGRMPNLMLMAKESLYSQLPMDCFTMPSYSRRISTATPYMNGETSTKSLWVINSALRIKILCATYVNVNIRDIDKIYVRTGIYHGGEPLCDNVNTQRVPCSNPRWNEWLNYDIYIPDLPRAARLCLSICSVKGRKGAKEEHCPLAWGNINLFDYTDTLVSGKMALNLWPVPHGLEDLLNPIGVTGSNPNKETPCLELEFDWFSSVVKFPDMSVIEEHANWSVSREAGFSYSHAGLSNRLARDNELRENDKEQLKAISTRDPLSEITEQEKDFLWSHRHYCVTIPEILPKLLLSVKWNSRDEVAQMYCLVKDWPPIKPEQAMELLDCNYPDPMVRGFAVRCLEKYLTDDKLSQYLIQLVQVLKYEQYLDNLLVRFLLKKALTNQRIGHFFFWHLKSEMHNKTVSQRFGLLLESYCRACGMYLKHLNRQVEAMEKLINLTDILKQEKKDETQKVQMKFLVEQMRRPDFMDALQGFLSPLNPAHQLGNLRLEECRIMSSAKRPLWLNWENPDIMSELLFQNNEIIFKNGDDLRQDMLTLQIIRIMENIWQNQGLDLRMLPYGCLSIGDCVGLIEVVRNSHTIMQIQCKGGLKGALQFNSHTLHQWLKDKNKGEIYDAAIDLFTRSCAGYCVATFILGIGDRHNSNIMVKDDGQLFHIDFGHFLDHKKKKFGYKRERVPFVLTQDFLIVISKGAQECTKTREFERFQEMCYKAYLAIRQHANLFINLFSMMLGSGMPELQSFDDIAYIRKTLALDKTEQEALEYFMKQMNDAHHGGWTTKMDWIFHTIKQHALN
T1 sequence (P27986 whole entry partner): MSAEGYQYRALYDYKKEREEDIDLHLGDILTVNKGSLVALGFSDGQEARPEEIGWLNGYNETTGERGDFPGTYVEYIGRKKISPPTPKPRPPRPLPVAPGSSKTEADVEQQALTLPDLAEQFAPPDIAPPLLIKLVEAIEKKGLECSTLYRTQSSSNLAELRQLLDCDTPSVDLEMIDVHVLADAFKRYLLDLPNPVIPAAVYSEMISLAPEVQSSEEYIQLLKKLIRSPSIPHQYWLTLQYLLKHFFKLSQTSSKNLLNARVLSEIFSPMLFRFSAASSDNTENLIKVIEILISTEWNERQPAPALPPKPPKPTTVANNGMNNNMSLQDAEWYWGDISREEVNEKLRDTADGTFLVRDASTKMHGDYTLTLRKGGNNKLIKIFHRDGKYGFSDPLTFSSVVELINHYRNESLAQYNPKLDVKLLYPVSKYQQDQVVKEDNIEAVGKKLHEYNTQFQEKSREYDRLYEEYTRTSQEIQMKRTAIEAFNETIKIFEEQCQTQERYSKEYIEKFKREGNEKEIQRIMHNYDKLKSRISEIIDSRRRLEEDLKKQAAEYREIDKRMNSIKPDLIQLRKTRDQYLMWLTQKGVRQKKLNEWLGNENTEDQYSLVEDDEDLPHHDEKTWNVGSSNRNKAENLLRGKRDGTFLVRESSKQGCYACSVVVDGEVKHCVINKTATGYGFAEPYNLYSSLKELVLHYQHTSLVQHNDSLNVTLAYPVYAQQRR

On to `CC(C)c1cnnc(Nc2ccc3ncc(-c4cn(C)nc4N)cc3n2)c1` [Example 0636, 7-(3-amino-1-methyl-1H-pyrazol-4-yl)-N-(5-isopropylpyridazin-3-yl)-1,5-naphthyridine-2-amine], for which the IC50 in assay [1] and in assay [2] was less than 1000 nM each time.

As for `C=Cc1cnc2ccc(Nc3cc(C(C)C)cnn3)nc2c1` [Example 0638, N-(5-isopropylpyridazin-3-yl)-7-vinyl-1,5-naphthyridine-2-amine], the figures for the IC50 in assay [1] and in assay [2] were 1000 to 10000 nM and less than 1000 nM, respectively.

Turning to `CC(C)c1cnnc(Nc2ccc3ncc(C(=O)O)cc3n2)c1` [Example 0639, 6-((5-isopropylpyridazin-3-yl)amino)-1,5-naphthyridine-3-carboxylic acid], the IC50 fell in the range of 1000 to 10000 nM in assay [1] and 10000 to 50000 nM in assay [2].

As to `CC(C)c1cnnc(Nc2ccc3ncc(C(N)=O)cc3n2)c1` [Example 0640, 6-((5-isopropylpyridazin-3-yl)amino)-1,5-naphthyridine-3-carboxamide], the IC50 was 1000 to 10000 nM in assay [1] and less than 1000 nM in assay [2].

With `CC(C)c1cnnc(Nc2ccc3ncc(-c4cnn(CCC5OCCCO5)c4)cc3n2)c1` [Example 0641, 7-(1-(2-(1,3-Dioxan-2-yl)ethyl)-1H-pyrazol-4-yl)-N-(5-isopropylpyridazin-3-yl)-1,5-naphthyridine-2-amine], the IC50 in assay [1] and in assay [2] was less than 1000 nM each time.

In the case of `CNC(=O)c1cnc2ccc(Nc3cc(C(C)C)cnn3)nc2c1` [Example 0642], the results for the IC50 in assay [1] and in assay [2] were 1000 to 10000 nM and less than 1000 nM, respectively.

Consider `COC(CCn1cc(-c2cnc3ccc(Nc4cc(C(C)C)cnn4)nc3c2)cn1)OC` [Example 0646, 7-(1-(3,3-dimethoxypropyl)-1H-pyrazol-4-yl)-N-(5-isopropylpyridazin-3-yl)-1,5-naphthyridine-2-amine], for which the IC50 in assay [1] and in assay [2] was less than 1000 nM each time.

On to `CC(C)c1cnnc(Nc2ccc3ncc(/C=C/c4cccnc4)cc3n2)c1` [Example 0648, (E)-N-(5-isopropylpyridazin-3-yl)-7-(2-(pyridin-3-yl)vinyl)-1,5-naphthyridine-2-amine], for which the IC50 in assay [1] and in assay [2] was less than 1000 nM each time.

`CC(C)c1cnnc(Nc2ccc3ncc(/C=C/c4ccncc4)cc3n2)c1` [Example 0652, (E)-N-(5-isopropylpyridazin-3-yl)-7-(2-(pyridin-4-yl)vinyl)-1,5-naphthyridine-2-amine]: the IC50 in assay [1] and in assay [2] was less than 1000 nM throughout.

With `CC(C)c1cnnc(Nc2ccc3ncc(NC(=O)COCc4ccccc4)cc3n2)c1` [Example 0654, 2-(benzyloxy)-N-(6-((5-isopropylpyridazin-3-yl)amino)-1,5-naphthyridin-3-yl)acetamide], the IC50 is less than 1000 nM in assay [1] and 1000 to 10000 nM in assay [2].

In the case of `CC(C)c1cnnc(Nc2ccc3ncc(C(=O)NCCO)cc3n2)c1` [Example 0655, N-(2-hydroxyethyl)-6-((5-isopropylpyridazin-3-yl)amino)-1,5-naphthyridine-3-carboxamide], the IC50 in assay [1] and in assay [2] was 1000 to 10000 nM throughout.

For the compound `CC(C)c1cnnc(Nc2ccc3ncc(/C=C/c4ccccn4)cc3n2)c1` [Example 0656, (E)-N-(5-isopropylpyridazin-3-yl)-7-(2-(pyridin-2-yl)vinyl)-1,5-naphthyridine-2-amine], the IC50 in assay [1] is less than 1000 nM; in assay [2], 1000 to 10000 nM.

Turning to `CC(C)c1cnnc(Nc2ccc3ncc(-c4cnn(CCCN5CCOC(C)(C)C5)c4)cc3n2)c1` [Example 0658], the IC50 in assay [1] and in assay [2] was less than 1000 nM in each case.

With `COCCN(CCCn1cc(-c2cnc3ccc(Nc4cc(C(C)C)cnn4)nc3c2)cn1)CCOC` [Example 0660], the IC50 in assay [1] and in assay [2] was less than 1000 nM each time.

On to `CC(C)c1cnnc(Nc2ccc3ncc(-c4cnn(CCCN(C)CC(=O)OC(C)(C)C)c4)cc3n2)c1` [Example 0661], for which the IC50 in assay [1] and in assay [2] was less than 1000 nM throughout.

Take `CC(C)c1cnnc(Nc2ccc3ncc(NC(=O)CO)cc3n2)c1` [Example 0662, 2-hydroxy-N-(6-((5-isopropylpyridazin-3-yl)amino)-1,5-naphthyridin-3-yl)acetamide]: the IC50 is less than 1000 nM in assay [1] and 1000 to 10000 nM in assay [2].

On to `CC(C)c1cnnc(Nc2ccc3ncc(C(=O)NCCCO)cc3n2)c1` [Example 0663], for which the IC50 in assay [1] and in assay [2] was 1000 to 10000 nM throughout.

As for `CC(C)c1cnnc(Nc2ccc3ncc(C(=O)NCCCCO)cc3n2)c1` [Example 0664], the IC50 in assay [1] and in assay [2] was 1000 to 10000 nM each time.

`CC(C)c1cnnc(Nc2ccc3ncc(-c4cnn(CCCN5CC(C(=O)O)C5)c4)cc3n2)c1` [Example 0666]: the IC50 in assay [1] and in assay [2] was less than 1000 nM throughout.

For `CC(C)c1cnnc(Nc2ccc3ncc(-c4cnn(CCCN(C)CC(=O)O)c4)cc3n2)c1` [Example 0667, 2-((3-(4-(6-((5-isopropylpyridazin-3-yl)amino)-1,5-naphthyridin-3-yl)-1H-pyrazol-1-yl)propyl) (methyl)amino)acetic acid], the IC50 in assay [1] and in assay [2] was less than 1000 nM throughout.

For `CC(C)c1cnnc(Nc2ccc3ncc(C(=O)Nc4ccncc4)cc3n2)c1` [Example 0669], the IC50 in assay [1] and in assay [2] was 1000 to 10000 nM in each case.

`CC(C)c1cnnc(Nc2ccc3ncc(-c4cnn(CCCN5CC(C(N)=O)C5)c4)cc3n2)c1` [Example 0670]: the IC50 in assay [1] and in assay [2] was less than 1000 nM throughout.

Consider `CC(C)c1cnnc(Nc2ccc3ncc(-c4cnn(CCCN(C)CC(N)=O)c4)cc3n2)c1` [Example 0671], for which the IC50 in assay [1] and in assay [2] was less than 1000 nM each time.

For the compound `CC(C)c1cnnc(Nc2ccc3ncc(-c4cnn(CCCN5CCCCC5C(F)(F)F)c4)cc3n2)c1` (stereo not drawn) [Example 0672], the IC50 in assay [1] and in assay [2] was less than 1000 nM throughout.

Consider `CC(C)c1cnnc(Nc2ccc3ncc(-c4cnn(CCCN5CCC(C(F)(F)F)CC5)c4)cc3n2)c1` [Example 0673], for which the IC50 in assay [1] and in assay [2] was less than 1000 nM each time.

On to `CC1CN(CCCn2cc(-c3cnc4ccc(Nc5cc(C(C)C)cnn5)nc4c3)cn2)C(C)CO1` (stereo not drawn) [Example 0674], for which the IC50 in assay [1] and in assay [2] was less than 1000 nM throughout.

As to `CCOC1CN(CCCn2cc(-c3cnc4ccc(Nc5cc(C(C)C)cnn5)nc4c3)cn2)C1` [Example 0676, N-(5-isopropylpyridazin-3-yl)-7-(1-(3-(3-ethoxyazetidin-1-yl)propyl)-1H-pyrazol-4-yl)-1,5-naphthyridine-2-amine], the IC50 in assay [1] and in assay [2] was less than 1000 nM throughout.

Take `CC(C)c1cnnc(Nc2ccc3ncc(-c4cnn(CCCN5CC(OCc6ccccc6)C5)c4)cc3n2)c1` [Example 0680]: the IC50 in assay [1] and in assay [2] was less than 1000 nM throughout.

Regarding `CC(C)c1cnnc(Nc2ccc3ncc(-c4cnn(CCCN5CC(OC(F)F)C5)c4)cc3n2)c1` [Example 0681], the IC50 in assay [1] and in assay [2] was less than 1000 nM throughout.

For `CNc1nn(C)cc1-c1cnc2ccc(Nc3cc(C(C)C)cnn3)nc2c1` [Example 0683, N-(5-isopropylpyridazin-3-yl)-7-(1-methyl-3-(methylamino)-1H-pyrazol-4-yl)-1,5-naphthyridine-2-amine hydrochloride], the IC50 in assay [1] and in assay [2] was less than 1000 nM throughout.

As to `CCC1CN(CCCn2cc(-c3cnc4ccc(Nc5cc(C(C)C)cnn5)nc4c3)cn2)CCO1` (stereo not drawn) [Example 0684], the IC50 in assay [1] and in assay [2] was less than 1000 nM each time.

`CC(C)c1cnnc(Nc2ccc3ncc(-c4cnn(CCCN5CC(C(=O)N6CCOCC6)C5)c4)cc3n2)c1` [Example 0689]: the IC50 in assay [1] and in assay [2] was less than 1000 nM throughout.

As to `CC(=O)Nc1nn(C)cc1-c1cnc2ccc(Nc3cc(C(C)C)cnn3)nc2c1` [Example 0690, N-(4-(6-((5-isopropylpyridazin-3-yl)amino)-1,5-naphthyridin-3-yl)-1-methyl-1H-pyrazol-3-yl)acetamide], the IC50 in assay [1] and in assay [2] was less than 1000 nM in each case.

With `CC(C)c1cnnc(Nc2ccc3ncc(-c4cnn(CCCN5CC(F)(F)C5)c4)cc3n2)c1` [Example 0692], the IC50 in assay [1] and in assay [2] was less than 1000 nM in each case.

Turning to `CC(C)c1cnnc(Nc2ccc3ncc(-c4cnn(CCCN5CC(NC(=O)OC(C)(C)C)C5)c4)cc3n2)c1` [Example 0693], the IC50 in assay [1] and in assay [2] was less than 1000 nM throughout.

In the case of `CC(C)c1cnnc(Nc2ccc3ncc(-c4cnn(CCCN5CC(NC(=O)C(F)(F)F)C5)c4)cc3n2)c1` [Example 0696], the IC50 in assay [1] and in assay [2] was less than 1000 nM each time.

For the compound `Cc1cn(-c2cnc3ccc(Nc4cc(C(C)C)cnn4)nc3c2)c(C)n1` [Example 0698, 7-(2,4-dimethyl-1H-imidazol-1-yl)-N-(5-isopropylpyridazin-3-yl)-1,5-naphthyridine-2-amine], the IC50 in assay [1] was 1000 to 10000 nM; in assay [2] it was less than 1000 nM.

For the compound `CC(C)c1cnnc(Nc2ccc3ncc(-c4cnn(CCCN5CC(OCC(F)(F)F)C5)c4)cc3n2)c1` [Example 0699], the IC50 in assay [1] and in assay [2] was less than 1000 nM throughout.

In the case of `CC(C)c1cnnc(Nc2ccc3ncc(-c4cnn(CCCN(C)CC(F)(F)F)c4)cc3n2)c1` [Example 0700, N-(5-isopropylpyridazin-3-yl)-7-(1-(3-(methyl (2,2,2-trifluoroethyl)amino)propyl)-1H-pyrazol-4-yl)-1,5-naphthyridine-2-amine], the IC50 in assay [1] and in assay [2] was less than 1000 nM in each case.

Values taken from US9783536B2, “Nitrogen-containing heterocyclic compound or salt thereof” (FUJIFILM Corporation, priority 2013, dated 2017).
